Results: patent US12097215B2, “Antibacterial composition and its use in treating bacterial infections” (Vector Vitale IP LLC, priority 2017, dated 2024)
Read-outs that look alike come from different tables or passages of the source. Marks after values point to notes of the source that are not given here.

How the values were obtained:
E. coli ATCC 25922 [1] = assay: MIC by serial dilutions in broth (visible growth); format: cell-based;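 further: broth tubes inoculated to about 5×10^5 CFU/ml, incubated at 35 °C for 16-24 h, growth judged by transmitted light versus an untreated inoculum reference tube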
Protocol: (§3) The minimum inhibitory concentration (MIC) and minimum bactericidal concentration (MBC) of the antibacterial composition enriched for the light isotope zinc ^64Zne was evaluated in the experiment. […] S. aureus ATCC 25923, E. coli ATCC 25922 and P. aeruginosa ATCC 27853 were used as test cultures.
(§4) The studies were carried out using the method of serial dilutions in broth. To determine sensitivity of microorganisms to the antibacterial composition, 0.5 ml of broth was placed into each tube. The number of tubes was determined based on the desired number of dilutions and was increased by one for the “negative” control (no test composition). Series of two-fold serial dilutions of the test variants of the antibacterial composition were used and concentrations ranging from 450 mcg ^64Zne/ml to 0.000107 mcg ^64Zne/ml were obtained.
(§5) Reference test strains of S. aureus ATCC 25923, E. coli ATCC 25922 and P. aeruginosa ATCC 27853 were incubated in Mueller-Hinton liquid broth at 37° C. for 24 hours. Standard bacterial suspension equivalent to 0.5 McFarland standard diluted 100-fold with the broth was used for the inoculation of the tubes after which the concentration of microorganism in it was approximately 10^6 CFU/ml.
(§6) 0.5 ml of inoculum was added to each tube containing 0.5 ml of the appropriate dilution of a solution of the ^64Zn-enriched salt of interest. […] The final concentration of the microorganism in each tube was approximately 5×10^5 CFU/ml.
(§7) The tubes were incubated at 35° C. in air for 16-20 or 20-24 hours (depending on the bacterial strain).
(§8) To determine the presence of microorganism growth the test tubes with inoculum were viewed under transmitted light. Transmitted light was measured by spectrophotometry. The growth of culture in the presence of antibacterial compositions based on ^64Zne was compared with the reference test tube (“negative” control), containing the original inoculum and stored in the refrigerator. The MIC was determined as the lowest concentration of ^64Zne that inhibits visible growth of the microorganism. Both gram-positive (S. aureus) and gram-negative bacteria (P. aeruginosa, E. coli) were used in the experiments described below.
(§9) That is, ^64Zne in the form of a salt was compared with a composition that contains zinc with a natural distribution of isotopes. […] Relevant samples containing salt of natural zinc with EDDA and natural zinc sulfate were used for the comparison.
(§10) The following commercial antibacterial medications were used for the study: azithromycin and ceftriaxone and norfloxacin. The initial concentration of 3000 mcg/ml was used for the samples of all the above compounds. […] Serial dilutions of the above antibacterial compounds were also prepared in the same way as for the antibacterial composition of the invention. The same pathogenic strains of S. aureus ATCC 25923, E. coli ATCC 25922, P. aeruginosa ATCC 27853 were used for the study.

S. aureus ATCC 25923 [2] = assay: MIC by serial dilutions in broth (visible growth); format: cell-based;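 further: broth tubes inoculated at about 5×10^5 CFU/ml, incubated 16-24 h at 35 °C in air, growth judged by transmitted light against an unexposed refrigerated inoculum tube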
Protocol: as §3, §4, §5, §6, §7, §8, §9, §10

P. aeruginosa ATCC 27853 [3] = assay: MIC by serial dilutions in broth (visible growth)
Protocol: as §3, §4, §5, §6, §7, §8, §9, §10

S. aureus ATCC 25923 [4] = assay: MBC by plating tube contents on Mueller-Hinton medium; format: cell-based
Protocol: (§1) To evaluate the bactericidal action of the antibacterial composition based on light isotope ^64Zne the minimum bactericidal concentration (MBC) was determined by plating out 0.1 ml of the contents of each tube containing the antibacterial composition on Mueller-Hinton medium. The incubation was at 37° C. for 24 h.
(§2) The MBC of the test samples was determined as the lowest concentration at which there was no growth on Mueller-Hinton agar medium.

P. aeruginosa ATCC 27853 [5] = assay: as above; format: cell-based
Protocol: as §1, §2

E. coli ATCC 25922 [6] = assay: as above; format: cell-based
Protocol: as §1, §2

[7] = Table 7, ^64Zne vs natural zinc
[8] = concentration of ^64Zne, Tables 1-5
[9] = Table 8, ^64Zne vs natural zinc

O=S(=O)([O-])[O-].[64Zn+2] [^64Zne sulfate]
1.4648 mcg zinc/ml: MBC (E. coli ATCC 25922 [6]; [9])
0.366 µg/mL: MIC (S. aureus ATCC 25923 [2]; [8])
−: visible growth (E. coli ATCC 25922 [1]; ^64Zne 0.092 mcg/ml) | visible growth (E. coli ATCC 25922 [1]; ^64Zne 0.37 mcg/ml) | visible growth (E. coli ATCC 25922 [1]; ^64Zne 0.73 mcg/ml) | visible growth (E. coli ATCC 25922 [1]; ^64Zne 1.46 mcg/ml) | visible growth (E. coli ATCC 25922 [1]; ^64Zne 2.93 mcg/ml) | visible growth (E. coli ATCC 25922 [1]; ^64Zne 5.86 mcg/ml) | visible growth (E. coli ATCC 25922 [1]; ^64Zne 11.72 mcg/ml) | visible growth (E. coli ATCC 25922 [1]; ^64Zne 23.44 mcg/ml) | visible growth (E. coli ATCC 25922 [1]; ^64Zne 46.88 mcg/ml) | visible growth (E. coli ATCC 25922 [1]; ^64Zne 93.75 mcg/ml) | visible growth (E. coli ATCC 25922 [1]; ^64Zne 187.5 mcg/ml) | visible growth (E. coli ATCC 25922 [1]; ^64Zne 375 mcg/ml) | visible growth (E. coli ATCC 25922 [1]; ^64Zne 750 mcg/ml) | visible growth (E. coli ATCC 25922 [1]; ^64Zne 1500 mcg/ml) | visible growth (S. aureus ATCC 25923 [2]; ^64Zne 0.37 mcg/ml) | visible growth (S. aureus ATCC 25923 [2]; ^64Zne 1.46 mcg/ml) | visible growth (S. aureus ATCC 25923 [2]; ^64Zne 2.93 mcg/ml) | visible growth (S. aureus ATCC 25923 [2]; ^64Zne 5.86 mcg/ml) | visible growth (S. aureus ATCC 25923 [2]; ^64Zne 11.72 mcg/ml) | visible growth (S. aureus ATCC 25923 [2]; ^64Zne 23.44 mcg/ml) | visible growth (S. aureus ATCC 25923 [2]; ^64Zne 46.88 mcg/ml) | visible growth (S. aureus ATCC 25923 [2]; ^64Zne 93.75 mcg/ml) | visible growth (S. aureus ATCC 25923 [2]; ^64Zne 187.5 mcg/ml) | visible growth (S. aureus ATCC 25923 [2]; ^64Zne 375 mcg/ml) | visible growth (S. aureus ATCC 25923 [2]; ^64Zne 750 mcg/ml)
1.46* mcg ^64Zne/ml: MBC (E. coli ATCC 25922 [6]; Table 6)
0.366 zinc/ml: MIC (S. aureus ATCC 25923 [2]; [7])
+: visible growth (E. coli ATCC 25922 [1]; ^64Zne 0.00036 mcg/ml) | visible growth (E. coli ATCC 25922 [1]; ^64Zne 0.00072 mcg/ml) | visible growth (E. coli ATCC 25922 [1]; ^64Zne 0.0014 mcg/ml) | visible growth (E. coli ATCC 25922 [1]; ^64Zne 0.0029 mcg/ml) | visible growth (E. coli ATCC 25922 [1]; ^64Zne 0.011 mcg/ml) | visible growth (E. coli ATCC 25922 [1]; ^64Zne 0.023 mcg/ml) | visible growth (E. coli ATCC 25922 [1]; ^64Zne 0.046 mcg/ml) | visible growth (S. aureus ATCC 25923 [2]; ^64Zne 0.00036 mcg/ml) | visible growth (S. aureus ATCC 25923 [2]; ^64Zne 0.00072 mcg/ml) | visible growth (S. aureus ATCC 25923 [2]; ^64Zne 0.0014 mcg/ml) | visible growth (S. aureus ATCC 25923 [2]; ^64Zne 0.0029 mcg/ml) | visible growth (S. aureus ATCC 25923 [2]; ^64Zne 0.011 mcg/ml) | visible growth (S. aureus ATCC 25923 [2]; ^64Zne 0.023 mcg/ml) | visible growth (S. aureus ATCC 25923 [2]; ^64Zne 0.046 mcg/ml)
0.37* mcg ^64Zne/ml: MBC (S. aureus ATCC 25923 [4]; Table 6)
− and +: visible growth (E. coli ATCC 25922 [1]) | visible growth (S. aureus ATCC 25923 [2])
46.875 zinc/ml: MIC (P. aeruginosa ATCC 27853 [3]; [7])
46.875 µg/mL: MIC (P. aeruginosa ATCC 27853 [3]; [8])
0.0916 µg/mL: MIC (E. coli ATCC 25922 [1]; [8])
0.3662 mcg zinc/ml: MBC (S. aureus ATCC 25923 [4]; [9])
0.0916 zinc/ml: MIC (E. coli ATCC 25922 [1]; [7])
satisfactory bactericidal activity: bactericidal activity (in words) (P. aeruginosa ATCC 27853 [5])
375 mcg ^64Zne/ml: MBC (P. aeruginosa ATCC 27853 [5]; Table 6)
375 mcg zinc/ml: MBC (P. aeruginosa ATCC 27853 [5]; [9])

NC(CC(=O)[O-])C(=O)[O-].[64Zn+2] (racemic) [^64Zne aspartate]
>750 mcg ^64Zne/ml: MBC (P. aeruginosa ATCC 27853 [5]; Table 6)
0.023* mcg ^64Zne/ml: MBC (S. aureus ATCC 25923 [4]; Table 6)
0.73* mcg ^64Zne/ml: MBC (E. coli ATCC 25922 [6]; Table 6)

NC(CC(=O)O)C(=O)O (stereo not shown) [^64Zne aspartate]
0.0057 µg/mL: MIC (S. aureus ATCC 25923 [2]; Staphylococcus aureus, ATCC25923, concentration of ^64Zne, Tables 1-5, read-out: MIC)
−: visible growth (E. coli ATCC 25922 [1]; ^64Zne 0.023 mcg/ml) | visible growth (E. coli ATCC 25922 [1]; ^64Zne 0.046 mcg/ml) | visible growth (E. coli ATCC 25922 [1]; ^64Zne 0.092 mcg/ml) | visible growth (E. coli ATCC 25922 [1]; ^64Zne 0.18 mcg/ml) | visible growth (E. coli ATCC 25922 [1]; ^64Zne 0.37 mcg/ml) | visible growth (E. coli ATCC 25922 [1]; ^64Zne 0.73 mcg/ml) | visible growth (E. coli ATCC 25922 [1]; ^64Zne 1.46 mcg/ml) | visible growth (E. coli ATCC 25922 [1]; ^64Zne 2.93 mcg/ml) | visible growth (E. coli ATCC 25922 [1]; ^64Zne 5.86 mcg/ml) | visible growth (E. coli ATCC 25922 [1]; ^64Zne 11.72 mcg/ml) | visible growth (E. coli ATCC 25922 [1]; ^64Zne 23.44 mcg/ml) | visible growth (E. coli ATCC 25922 [1]; ^64Zne 46.88 mcg/ml) | visible growth (E. coli ATCC 25922 [1]; ^64Zne 93.75 mcg/ml) | visible growth (E. coli ATCC 25922 [1]; ^64Zne 187.5 mcg/ml) | visible growth (E. coli ATCC 25922 [1]; ^64Zne 375 mcg/ml) | visible growth (E. coli ATCC 25922 [1]; ^64Zne 750 mcg/ml) | visible growth (S. aureus ATCC 25923 [2]; ^64Zne 0.0057 mcg/ml) | visible growth (S. aureus ATCC 25923 [2]; ^64Zne 0.011 mcg/ml) | visible growth (S. aureus ATCC 25923 [2]; ^64Zne 0.023 mcg/ml) | visible growth (S. aureus ATCC 25923 [2]; ^64Zne 0.046 mcg/ml) | visible growth (S. aureus ATCC 25923 [2]; ^64Zne 0.092 mcg/ml) | visible growth (S. aureus ATCC 25923 [2]; ^64Zne 0.18 mcg/ml) | visible growth (S. aureus ATCC 25923 [2]; ^64Zne 0.37 mcg/ml) | visible growth (S. aureus ATCC 25923 [2]; ^64Zne 0.73 mcg/ml) | visible growth (S. aureus ATCC 25923 [2]; ^64Zne 1.46 mcg/ml) | visible growth (S. aureus ATCC 25923 [2]; ^64Zne 2.93 mcg/ml) | visible growth (S. aureus ATCC 25923 [2]; ^64Zne 5.86 mcg/ml) | visible growth (S. aureus ATCC 25923 [2]; ^64Zne 11.72 mcg/ml) | visible growth (S. aureus ATCC 25923 [2]; ^64Zne 23.44 mcg/ml) | visible growth (S. aureus ATCC 25923 [2]; ^64Zne 46.88 mcg/ml) | visible growth (S. aureus ATCC 25923 [2]; ^64Zne 93.75 mcg/ml) | visible growth (S. aureus ATCC 25923 [2]; ^64Zne 187.5 mcg/ml) | visible growth (S. aureus ATCC 25923 [2]; ^64Zne 375 mcg/ml)
0.0229 µg/mL: MIC (E. coli ATCC 25922 [1]; Escherichia coli, ATCC25922, concentration of ^64Zne, Tables 1-5, read-out: MIC)
best results: bacteriostatic activity (in words) (P. aeruginosa ATCC 27853 [3])
0.732 µg/mL: MIC (P. aeruginosa ATCC 27853 [3]; Pseudomonas aeruginosa, ATCC27853)
+: visible growth (E. coli ATCC 25922 [1]; ^64Zne 0.00018 mcg/ml) | visible growth (E. coli ATCC 25922 [1]; ^64Zne 0.00036 mcg/ml) | visible growth (E. coli ATCC 25922 [1]; ^64Zne 0.00072 mcg/ml) | visible growth (E. coli ATCC 25922 [1]; ^64Zne 0.0014 mcg/ml) | visible growth (E. coli ATCC 25922 [1]; ^64Zne 0.0029 mcg/ml) | visible growth (E. coli ATCC 25922 [1]; ^64Zne 0.0057 mcg/ml) | visible growth (E. coli ATCC 25922 [1]; ^64Zne 0.011 mcg/ml) | visible growth (S. aureus ATCC 25923 [2]; ^64Zne 0.00018 mcg/ml) | visible growth (S. aureus ATCC 25923 [2]; ^64Zne 0.00036 mcg/ml) | visible growth (S. aureus ATCC 25923 [2]; ^64Zne 0.00072 mcg/ml) | visible growth (S. aureus ATCC 25923 [2]; ^64Zne 0.0014 mcg/ml) | visible growth (S. aureus ATCC 25923 [2]; ^64Zne 0.0029 mcg/ml)
